Source: patent publication US8357694B2, “Substituted 5,6-dihydro-6-phenylbenzo[F]isoquinolin-2-amine compounds” (ArQule, Inc., priority 2008, dated 2013)
Counter-ions that a name gives are not always drawn.

melting point [°C]	SMILES
263 to 265	COCCN1CCN(CCc2ccc(Nc3ncc4c(n3)-c3ccccc3[C@H](c3cccc(Br)c3)C4)cc2)CC1 (as salt: hydrochloride) [Example 77, (S)-6-(3-bromophenyl)-N-(4-(2-(4-(2-methoxyethyl)piperazin-1-yl)ethyl)phenyl)-5,6-dihydrobenzo[h]quinazolin-2-amine hydrochloride]
145 to 150	CCCCN(C)CCc1ccc(Nc2ncc3c(n2)-c2ccccc2[C@H](c2ccc(F)c(F)c2)C3)cc1 (as salt: hydrochloride) [Example 96, (S)—N-(4-(2-(butyl(methyl)amino)ethyl)phenyl)-6-(3,4-difluorophenyl)-5,6-dihydrobenzo[h]quinazolin-2-amine hydrochloride salt]
158 to 164	CN(CCc1ccc(Nc2ncc3c(n2)-c2ccccc2[C@H](c2ccccc2F)C3)cc1)C1CCCCC1 (as salt: HCl) [Example 95, (R)—N-(4-(2-(cyclohexyl(methyl)amino)ethyl)phenyl)-6-(2-fluorophenyl)-5,6-dihydrobenzo[h]quinazolin-2-amine]
61 to 62	COCCNCCc1ccc(Nc2ncc3c(n2)-c2ccccc2C(c2ccccc2C(F)(F)F)C3)cc1 (centres unmarked) [Example 70, N-(4-(2-(2-methoxyethylamino)ethyl)phenyl)-6-(2-(trifluoromethyl)phenyl)-5,6-dihydrobenzo[h]quinazolin-2-amine]
146 to 153	CN(CCc1ccccc1)CCc1ccc(Nc2ncc3c(n2)-c2ccccc2[C@H](c2cccc(Br)c2)C3)cc1 (as salt: HCl) [Example 81, (S)-6-(3-bromophenyl)-N-(4-(2-(methyl(phenethyl)amino)ethyl)phenyl)-5,6-dihydrobenzo[h]quinazolin-2-amine]
170 to 175	Clc1ccc(C2Cc3cnc(Nc4ccc(CCN5CCCCC5)cc4)nc3-c3ccccc32)cc1 (centres unmarked) (as salt: hydrochloride) [Example 53, 6-(4-chlorophenyl)-N-(4-(2-(piperidin-1-yl)ethyl)phenyl)-5,6 dihydrobenzo[h]quinazolin-2-amine]
52 to 54	COCCN1CCN(CCc2ccc(Nc3ncc4c(n3)-c3ccccc3C(c3ccccc3)C4)cc2)CC1 (centres unmarked) [Example 65, N-(4-(2-(4-(2-methoxyethyl)piperazin-1-yl)ethyl)phenyl)-6-phenyl-5,6-dihydrobenzo[h]quinazolin-2-amine]
130 to 132	CCCCN(C)CCc1ccc(Nc2ncc3c(n2)-c2ccccc2[C@H](c2ccc(F)c(F)c2)C3)cc1 (as salt: hydrochloride) [Example 89, (S)—N-(4-(2-(butyl(methyl)amino)ethyl)phenyl)-6-(3,4-difluorophenyl)-5,6-dihydrobenzo[h]quinazolin-2-amine hydrochloride]
190 to 192	COCCN1CCN(CCc2ccc(Nc3ncc4c(n3)-c3ccccc3[C@H](c3ccc(F)c(F)c3)C4)cc2)CC1 (as salt: hydrochloride) [Example 83, N-(4-(2-(4-(2-(S)-6-(3,4-difluorophenyl)-N-(4-(2-(4-(2-methoxyethyl)piperazin-1-yl)ethyl)phenyl)-5,6-dihydrobenzo[h]quinazolin-2-amine hydrochloride]
175 to 185	CN(CCc1ccc(Nc2ncc3c(n2)-c2ccccc2[C@H](c2ccc(Cl)c(Cl)c2)C3)cc1)C1CCCCC1 (as salt: hydrochloride) [Example 106, (S)—N-(4-(2-(cyclohexyl(methyl)amino)ethyl)phenyl)-6-(3,4-dichlorophenyl)-5,6-dihydrobenzo[h]quinazolin-2-amine hydrochloride salt]
170 to 174	Fc1ccccc1[C@@H]1Cc2cnc(Nc3ccc(CCN4CCCCC4)cc3)nc2-c2ccccc21 (as salt: hydrochloride) [Example 67, (R)-6-(2-fluorophenyl)-N-(4-(2-(piperidin-1-yl)ethyl)phenyl)-5,6-dihydrobenzo[h]quinazolin-2-amine hydrochloride]
85 to 91	CCCCN(C)CCc1ccc(Nc2ncc3c(n2)-c2ccccc2C(c2ccc(F)c(F)c2)C3)cc1 (centres unmarked) (as salt: hydrochloride) [Example 58, N-(4-(2-(butyl(methyl)amino)ethyl)phenyl)-6-(3,4-difluorophenyl)-5,6-dihydrobenzo[h]quinazolin-2-amine]
282 to 284	N#Cc1c(N)ncc2c1-c1ccccc1C(c1ccc(Cl)cc1Cl)C2 (centres unmarked) [Example 151, 2-amino-6-(2,4-dichlorophenyl)-5,6-dihydrobenzo[f]isoquinoline-1-carbonitrile]
162 to 166	CCCCN(C)CCc1cccc(Nc2ncc3c(n2)-c2ccccc2[C@H](c2ccc(Cl)c(Cl)c2)C3)c1 (as salt: hydrochloride) [Example 168, (S)—N-(3-(2-(butyl(methyl)amino)ethyl)phenyl)-6-(3,4-dichlorophenyl)-5,6-dihydrobenzo[h]quinazolin-2-amine hydrochloride]
170 to 175	CN(CCc1ccccc1)CCc1ccc(Nc2ncc3c(n2)-c2ccccc2[C@H](c2ccc(Cl)c(Cl)c2)C3)cc1 (as salt: hydrochloride) [Example 104, (S)-6-(3,4-dichlorophenyl)-N-(4-(2-(methyl(phenethyl)amino)ethyl)phenyl)-5,6-dihydrobenzo[h]quinazolin-2-amine hydrochloride salt]
265 to 270	COCCN1CCN(CCc2ccc(Nc3ncc4c(n3)-c3ccccc3[C@H](c3ccc(Br)cc3)C4)cc2)CC1 (as salt: hydrochloride) [Example 97, (S)-6-(4-bromophenyl)-N-(4-(2-(4-(2-methoxyethyl)piperazin-1-yl)ethyl)phenyl)-5,6-dihydrobenzo[h]quinazolin-2-amine hydrochloride salt]
162 to 163	OCCc1ccccc1Nc1ncc2c(n1)-c1ccccc1[C@H](c1ccccc1F)C2 [Example 177, (R)-2-(2-(6-(2-fluorophenyl)-5,6-dihydrobenzo[h]quinazolin-2-ylamino)phenyl)ethanol]

Continued, compound first:

SMILES	melting point [°C]
OCCc1ccc(Nc2ncc3c(n2)-c2ccccc2C(c2cccc(Br)c2)C3)cc1 (centres unmarked) [Example 7, 2-(4-(6-(3-bromophenyl)-5,6-dihydrobenzo[h]quinazolin-2-ylamino)phenyl)ethanol]	88 to 90
CN(CCc1ccc(Nc2ncc3c(n2)-c2ccccc2C(c2cccc(Br)c2)C3)cc1)C1CCCCC1 (centres unmarked) [Example 29, 6-(3-bromophenyl)-N-(4-(2-(cyclohexyl(methyl)amino)ethyl)phenyl)-5,6-dihydrobenzo[h]quinazolin-2-amine]	215 to 217
Clc1ccc([C@@H]2Cc3cnc(Nc4ccccc4)nc3-c3ccccc32)cc1Cl [Example 15, (S)-6-(3,4-dichlorophenyl)-N-phenyl-5,6-dihydrobenzo[h]quinazolin-2-amine]	159
CN(CCc1ccccc1)CCc1ccc(Nc2ncc3c(n2)-c2ccccc2C(c2cccc(Br)c2)C3)cc1 (centres unmarked) [Example 37, 6-(3-bromophenyl)-N-(4-(2-(methyl(phenethyl)amino)ethyl)phenyl)-5,6-dihydrobenzo[h]quinazolin-2-amine]	80 to 82
CC(O)CN(CCc1ccc(Nc2ncc3c(n2)-c2ccccc2C(c2cccc(Br)c2)C3)cc1)Cc1ccccc1 (centres unmarked) [Example 39, 1-(benzyl(4-(6-(3-bromophenyl)-5,6-dihydrobenzo[h]quinazolin-2-ylamino)phenethyl)amino)propan-2-ol]	90 to 92
CC(C)(C)OC(=O)N1CCC[C@@H](Nc2ncc3c(n2)-c2ccccc2[C@H](c2ccc(Cl)c(Cl)c2)C3)C1	85 to 87
CN(CCc1ccc(Nc2ncc3c(n2)-c2ccccc2C(c2ccc(Cl)c(Cl)c2)C3)cc1)C1CCCCC1 (centres unmarked) [Example 30, N-(4-(2-(cyclohexyl(methyl)amino)ethyl)phenyl)-6-(3,4-dichlorophenyl)-5,6-dihydrobenzo[h]quinazolin-2-amine]	130 to 131
Clc1ccc(C2Cc3cnc(Nc4ccc(CCN5CCOCC5)cc4)nc3-c3ccccc32)cc1Cl (centres unmarked) [Example 50, 6-(3,4-dichlorophenyl)-N-(4-(2-morpholinoethyl)phenyl)-5,6-dihydrobenzo[h]quinazolin-2-amine]	180 to 181
CN1CCN(CCc2ccc(Nc3ncc4c(n3)-c3ccccc3C(c3cccc(Br)c3)C4)cc2)CC1 (centres unmarked) [Example 28, 6-(3-bromophenyl)-N-(4-(2-(4-methylpiperazin-1-yl)ethyl)phenyl)-5,6-dihydrobenzo[h]quinazolin-2-amine]	100 to 102
Brc1cccc(C2Cc3cnc(Nc4ccc(CCN5CCN(c6ccccc6)CC5)cc4)nc3-c3ccccc32)c1 (centres unmarked) [Example 43, 6-(3-bromophenyl)-N-(4-(2-(4-phenylpiperazin-1-yl)ethyl)phenyl)-5,6-dihydrobenzo[h]quinazolin-2-amine]	113 to 115
Brc1cccc(C2Cc3cnc(Nc4ccc(CCNCCN5CCCC5)cc4)nc3-c3ccccc32)c1 (centres unmarked) [Example 47, 6-(3-bromophenyl)-N-(4-(2-(2-(pyrrolidin-1-yl)ethylamino)ethyl)phenyl)-5,6-dihydrobenzo[h]quinazolin-2-amine]	83 to 85
OCCc1ccc(Nc2ncc3c(n2)-c2ccccc2C(c2ccc(Cl)c(Cl)c2)C3)cc1 (centres unmarked)	94 to 96
CCCCN(C)CCc1cccc(Nc2ncc3c(n2)-c2ccccc2[C@H](c2ccccc2F)C3)c1 (as salt: hydrochloride)	163 to 167
CN1CCN(CCc2ccc(Nc3ncc4c(n3)-c3ccccc3C(c3ccc(Cl)c(Cl)c3)C4)cc2)CC1 (centres unmarked) [Example 52, 6-(3,4-dichlorophenyl)-N-(4-(2-(4-methylpiperazin-1-yl)ethyl)phenyl)-5,6-dihydrobenzo[h]quinazolin-2-amine]	119 to 121
CCCCN(C)CCc1ccc(Nc2ncc3c(n2)-c2ccccc2C(c2cccc(Br)c2)C3)cc1 (centres unmarked) [Example 26, 6-(3-bromophenyl)-N-(4-(2-(butyl(methyl)amino)ethyl)phenyl)-5,6-dihydrobenzo[h]quinazolin-2-amine]	66 to 68
